Measurements taken from patent publication US9428487B2, “Heteroaromatic amides and thioamides as pesticides” (Bayer Intellectual Property GmbH, priority 2008, dated 2016).
Like-named read-outs stand apart in the source and are kept apart here.

Tests used:
[1] = Determination of log P values by HPLC on reversed-phase column (formic acid method); type: physicochemical
Description: 1) Description of Method for Determining the Log P Values (Formic Acid Method)
The log P values reported in the table were determined according to EEC-Directive 79/831 Annex V.A8 by HPLC (High Performance Liquid Chromatography) on a reversed-phase column (C 18). […]
Eluent A: acetonitrile+1 ml of formic acid/liter. Eluent B: water+0.9 ml of formic acid/liter.
Gradient: from 10% eluent A/90% eluent B to 95% eluent A/5% eluent B in 4.25 min
The calibration was effected with unbranched alkan-2-ones (with 3 to 16 carbon atoms), whose log P values are known (determination of the log P values on the basis of the retention times by linear interpolation between two successive alkanones). The lambda-max values were determined with reference to the UV spectra from 200 nm to 400 nm in the maxima of the chromatographic signals.

[2] = system: green peach aphid (Myzus persicae); experiment: Myzus test; type: in vivo; conditions: read-out: efficacy (aphids killed)
Description: • Solvent: 78.0 parts by weight of acetone • 1.5 parts by weight of dimethylformamide • Emulsifier: 0.5 part by weight of alkylaryl polyglycol ether
To produce an appropriate active ingredient formulation, 1 part by weight of active ingredient is mixed with the amounts of solvent and emulsifier specified and the concentrate is diluted to the desired concentration with emulsifier-containing water.
Chinese cabbage leaf slices (Brassica pekinensis) infested by all stages of the green peach aphid (Myzus persicae) are sprayed with an active ingredient formulation of the desired concentration.
After the desired time, the efficacy in % is determined 100% means that all aphids have been killed; 0% means that no aphids have been killed.

[3] = reversed-phase HPLC column (C 18), pH 3.4, HPLC, reversed-phase C 18, acidic range (pH 3.4), formic acid eluents, 55° C., read-out: logP (HCOOH)
[4] = application rate 500 g/ha, spray on Chinese cabbage leaf slices
[5] = HPLC, reversed-phase C 18, acidic range (pH 3.4), formic acid eluents, 55° C., read-out: logP (HCOOH)
[6] = HPLC, reversed-phase C 18, acidic range (pH 3.4), formic acid eluents, 55° C.

| Structure (SMILES) | chromatographic logP [1, 3] | pest or weed control at 500 g/ha [2, 4] | further results |
| --- | --- | --- | --- |
| Cc1cc(CN(C)C(=O)c2sc(-c3cccnc3)nc2C)no1 [Compound 164] | 1.52 | ≥ 70% |  |
| CCC(=O)N(CC#N)C(=O)c1cnc(-c2cccnc2)s1 [Compound 190] | 1.77 | ≥ 70% |  |
| CCOC(=O)C(CC)N(C)C(=O)c1sc(-c2cccnc2)nc1C (stereo not shown) [Compound 141] | 2.1 | ≥ 70% |  |
| CCOC(=O)NC(C)(C)CNC(=O)c1sc(-c2cccnc2)nc1C [Compound 120] |  |  | chromatographic logP [1, 5]: 1.75; pest or weed control at 500 g/ha ([2]; in Brassica rapa): ≥ 70% |
| Cc1nc(CNC(=O)c2sc(-c3cccnc3)nc2C)no1 [Compound 38] | 1.21 | ≥ 70% |  |
| Cn1nc(-c2cccnc2)cc1C(=O)NCc1ccon1 [Compound 29] | 0.56 | ≥ 70% |  |
| O=C(NCC(F)(F)F)c1nnc(-c2cccnc2)s1 [Compound 32] | 1.53 | ≥ 70% |  |
| Cc1nc(-c2cccnc2)sc1C(=O)NC(C)C(F)(F)F (stereo not shown) [Compound 168] | 1.89 | ≥ 70% |  |
| Cc1nc(-c2cccnc2)sc1C(=O)NC1(c2ncccn2)CC1 [Compound 193] | 1.21 | ≥ 70% |  |
| Cc1nc(-c2cccnc2)sc1C(=O)N(CC(F)(F)F)C(=O)C1(F)CC1 [Compound 58] | 2.77 | ≥ 70% |  |
| Cc1nc(-c2cccnc2)sc1C(=O)NC1CCS(=O)(=O)C1 (stereo not shown) [Compound 110] | 1.22 | ≥ 70% |  |
| C#CC(C)(C)NC(=O)c1sc(-c2cccnc2)nc1C [Compound 156] | 1.66 | ≥ 70% |  |
| Cc1nc(-c2cccnc2)sc1C(=O)NC(C)C1CCCO1 (stereo not shown) [Compound 195] | 1.5 | ≥ 70% |  |
| Cc1nc(-c2cncc(I)c2)sc1C(=O)NCc1ncccn1 [Compound 18] | 1.87 |  |  |
| CNC(=O)c1cnc(-c2cccnc2)s1 [Compound 59] | 0.62 | ≥ 70% |  |
| CCNC(=O)c1cnc(-c2cccnc2)s1 [Compound 55] | 1.03 | ≥ 70% |  |
| Cc1nc(-c2cccnc2)sc1C(=O)NCC#N [Compound 184] | 1.05 | ≥ 70% |  |
| O=C(O)c1cnc(-c2cccnc2)s1 [2-pyridin-3-ylthiazole-5-carboxylic acid] | 0.42 |  |  |
| Cc1nc(-c2cccnc2)sc1C(=O)NC1CSC1 [Compound 194] | 1.47 | ≥ 70% |  |
| O=C(NCc1cccc(Br)n1)c1cnc(-c2cccnc2)s1 [Compound 179] | 1.68 | ≥ 70% |  |
| Cc1ccc(CNC(=O)c2cnc(-c3cccnc3)s2)o1 [Compound 186] | 1.77 | ≥ 70% |  |
| Cc1nc(-c2cccnc2)sc1C(=O)NCCCl [Compound 177] |  |  | chromatographic logP [1, 5]: 1.41; pest or weed control at 500 g/ha ([2]; in Brassica rapa): ≥ 70% |

| Structure (SMILES) | chromatographic logP [1, 3] | pest or weed control at 500 g/ha [2, 4] | further results |
| --- | --- | --- | --- |
| COC1(NC(=O)c2cnc(-c3cccnc3)s2)CC1 [Compound 70] | 1.14 | ≥ 70% |  |
| CN(CC(C)(F)F)C(=O)c1cc(-c2cccnc2)nn1C [Compound 27] | 0.99 | ≥ 70% |  |
| Cc1nc(-c2cccnc2)sc1C(=O)N(C)CC(F)F [Compound 41] | 1.48 | ≥ 70% |  |
| Cn1nc(-c2cccnc2)cc1C(=O)NCC(C)(F)F [Compound 24] | 0.91 | ≥ 70% |  |
| Cc1nc(-c2cncc(Cl)c2)sc1C(=O)NCC(F)(F)F [Compound 14] | 2.5 | ≥ 70% |  |
| CCN(CC1CCCO1)C(=O)c1sc(-c2cccnc2)nc1C (stereo not shown) [Compound 187] | 1.64 | ≥ 70% |  |
| Cc1cc(C)nc(CNC(=O)c2sc(-c3cccnc3)nc2C)n1 [Compound 95] | 1.24 | ≥ 70% |  |
| Cc1nc(-c2cccnc2)sc1C(=O)N(C)CC(=O)OC(C)C [Compound 162] | 1.78 | ≥ 70% |  |
| Cc1nc(-c2cccnc2)sc1C(=O)N(Cc1ccco1)CC(F)(F)F [Compound 131] | 2.56 | ≥ 70% |  |
| Cc1nc(-c2cccnc2)sc1C(=O)NCc1nc(C2CC2)no1 [Compound 172] | 1.63 | ≥ 70% |  |
| Cc1nc(-c2cncnc2)sc1C(=O)N(C)CC(F)(F)F [Compound 21] | 1.72 | ≥ 70% |  |
| Cc1nc(-c2cccnc2)sc1C(=O)NCc1cc(C)n(C)n1 [Compound 145] | 1.38 | ≥ 70% |  |
| Cc1nc(-c2cccnc2)sc1C(=O)NCC1OCCCO1 [Compound 92] | 1.27 | ≥ 70% |  |
| Cc1nc(-c2cncc(Cl)c2)sc1C(=O)NCc1ncccn1 [Compound 15] | 1.69 | ≥ 70% |  |
| COCN(CC1COCCO1)C(=O)c1sc(-c2cccnc2)nc1C (stereo not shown) [Compound 188] | 1.45 | ≥ 70% |  |
| N#CCNC(=O)c1cnc(-c2cccnc2)s1 [Compound 79] | 0.88 | ≥ 70% |  |
| Cc1nc(-c2cccnc2)sc1C(=O)NCc1ncc(Cl)cn1 [Compound 147] | 1.45 | ≥ 70% |  |
| Cc1nc(-c2cccnc2)sc1C(=O)NCCF [Compound 53] | 1.11 | ≥ 70% |  |
| Cc1nc(-c2cccnc2)sc1C(=O)NC(C)(C)CS(C)(=O)=O [Compound 114] | 1.28 | ≥ 70% |  |
| Cc1nc(-c2cccnc2)sc1C(=O)NC1(C(F)(F)F)CC1 [Compound 34] | 1.84 | ≥ 70% |  |
| Cc1nc(-c2ccc[n+]([O-])c2)sc1C(=O)NCC(F)(F)F [Compound 78] | 1.31 | ≥ 70% |  |
| COCN(Cc1cc(C)on1)C(=O)c1sc(-c2cccnc2)nc1C [Compound 119] | 1.71 | ≥ 70% |  |

| Structure (SMILES) | chromatographic logP [1, 3] | pest or weed control at 500 g/ha [2, 4] | further results |
| --- | --- | --- | --- |
| Cn1nc(-c2cccnc2)cc1C(=O)NCC(F)(F)F [Compound 31] | 1.04 | ≥ 70% |  |
| CSCC(C)(C)N(C)C(=O)c1sc(-c2cccnc2)nc1C [Compound 45] | 2.21 | ≥ 70% |  |
| CCOC1(NC(=O)c2cnc(-c3cccnc3)s2)CC1 [Compound 88] | 1.31 | ≥ 70% |  |
| COC(=O)N(CC(F)(F)F)C(=O)c1sc(-c2cccnc2)nc1C [Compound 116] |  |  | chromatographic logP [1, 5]: 2.46; pest or weed control at 500 g/ha ([2]; in Brassica rapa): ≥ 70% |
| Cc1nc(-c2cccnc2)sc1C(=O)NCC1OCC(C)O1 (stereo not shown) [Compound 62] | 1.34 | ≥ 70% |  |
| COC(=O)C(C)NC(=O)c1sc(-c2cccnc2)nc1C (stereo not shown) [Compound 84] | 1.36 | ≥ 70% |  |
| Cc1nc(-c2cccnc2)sc1C(=O)NN1CCCCC1 [Compound 202] | 1.39 | ≥ 70% |  |
| O=C(NCc1ncccn1)c1nnc(-c2cccnc2)s1 [Preparation Example 7] | 0.85 | ≥ 70% | chromatographic logP ([1]; pH 7.5, pH=7.5, read-out: log P (pH=7.5)): 0.85 |
| Cc1nc(-c2cncc(Cl)c2)sc1C(=O)N(C)C [Compound 17] | 1.8 |  |  |
| Cc1nc(-c2cccnc2)sc1C(=O)NC(C#N)C(C)C (stereo not shown) [Compound 64] |  |  | logP (HCOOH) [1, 6]: 1.57 |
| CCOC(=O)c1cnc(-c2cccnc2)s1 [ethyl 2-pyridin-3-ylthiazole-5-carboxylate] | 1.93 |  |  |
| Cc1nc(-c2cncc(I)c2)sc1C(=O)NCC(F)(F)F [Compound 20] | 2.75 |  |  |
| CSC[C@H](C)NC(=O)c1sc(-c2cccnc2)nc1C [Compound 68] |  |  | logP (HCOOH) [1, 6]: 1.65 |
| Cc1nc(-c2cncc(F)c2)sc1C(=O)N(C)C [Compound 19] | 1.49 |  |  |
| Cc1nc(-c2cncc(Cl)c2)sc1C(=O)N(C)CC(F)(F)F [Preparation Example 2] | 2.72 |  |  |
| Cc1nc(-c2cccnc2)sc1C(=O)NCC(C)F (stereo not shown) [Compound 76] |  |  | logP (HCOOH) [1, 6]: 1.13 |
| CON(C)C(=O)c1cc(-c2cccnc2)nn1C [Preparation Example 6] | 0.49 |  |  |
| CCOC(=O)c1nnc(-c2cccnc2)s1 [ethyl 5-pyridin-3-yl[1,3,4]thiadiazole-2-carboxylate] | 1.41 |  |  |
| Cc1nc(Cl)sc1C(=O)NCC(F)(F)F | 1.97 |  |  |
| Cc1nc(-c2cncnc2)sc1C(=O)N(C)C [Compound 23] | 1 |  |  |
